These results are taken from publication PMC6008492, “Structure activity relationship studies on rhodanines and derived enethiol inhibitors of metallo-β-lactamases” (Bioorganic & Medicinal Chemistry, 2018).

The term IC50 denotes the concentration that inhibits the measured activity by half.

In one assay the target is SPM-1 (Pseudomonas aeruginosa, UniProt Q8G9Q0). As to the kind of experiment: SPM-1 inhibition, fluorogenic cephalosporin (FC5) hydrolysis. Conditions: for IC50: enethiols 6 assayed as sodium salts, 10 min incubation, read-out: IC50 SPM-1 (converted); for remaining activity at 100 µM: read-out: % Residual activity versus SPM-1. The assay is classed as biochemical. As to the method:
(§1) Inhibition analyses against bacterial MBLs and SBLs were performed as described previously.[22], [24], [26] Residual enzyme activities were determined for a range of inhibitor concentrations. Non-linear regression fitting of IC50 curves was carried out using a three-parameter dose–response curve in GraphPad Prism. Errors in IC50 values are expressed as: σ(logIC50)/logIC50×IC50
(§2) We first screened the inhibitors against a representative set of presently clinically important and other MBLs[22], comprising both Class B1 enzymes (NDM-1, New Delhi MBL-1; VIM-2, Verona integron–encoded MBL-2; BcII, Bacillus cereus II MBL; SPM-1, São Paulo MBL-1; IMP-1, imipenemase MBL-1) and the Class B2 MBL CphA (carbapenem hydrolysing MBL from Aeromonas hydrophila).[22] The latter MBL (CphA) only utilises one active site Zn(II) ion in catalysis, whilst the others normally use two Zn(II) ions.
Figure S5: IC50 curves for SPM-1 inhibition time courses. Residual activities were calculated from the
(§3) initial rate of FC5 hydrolysis after incubation of the enzyme with the inhibitor for 10 minutes. […]

A further assay addresses T1, IMP-1 (Serratia marcescens, UniProt P52699).
T1 construct: made in house
As to the kind of experiment: IMP-1 inhibition, fluorogenic cephalosporin (FC5) hydrolysis. In kind it is biochemical. Conditions: for IC50: enethiols 6 assayed as sodium salts, 10 min incubation, read-out: IC50 IMP-1 (converted); for remaining activity at 100 µM: read-out: % Residual activity versus IMP-1. As to the method: as §1, §2
Figure S3: IC50 curves for IMP-1 inhibition time courses. Residual activities were calculated from the
initial rate of FC5 hydrolysis after incubation of the enzyme with the inhibitor for 10 minutes.

In the next assay the target is T2, BcII (Bacillus cereus, UniProt P04190).
T2 construct: made in house
T2 sequence (P04190 31-257): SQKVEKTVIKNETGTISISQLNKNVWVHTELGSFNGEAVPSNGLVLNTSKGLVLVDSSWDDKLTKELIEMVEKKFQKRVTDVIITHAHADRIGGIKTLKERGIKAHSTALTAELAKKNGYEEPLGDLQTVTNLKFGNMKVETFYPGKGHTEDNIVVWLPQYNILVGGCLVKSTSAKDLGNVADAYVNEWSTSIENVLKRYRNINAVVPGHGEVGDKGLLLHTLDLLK
As to the kind of experiment: biochemical. Conditions: for IC50: enethiols 6 assayed as sodium salts, 10 min incubation, read-out: IC50 BcII (converted); for remaining activity at 100 µM: read-out: % Residual activity versus BcII. As to the method:
as §1, §2
Figure S2: IC50 curves for BcII inhibition time courses. Residual activities were calculated from the initial
rate of FC5 hydrolysis after incubation of the enzyme with the inhibitor for 10 minutes. […]

A further assay concerns the target T3, VIM-2 (Escherichia coli, UniProt Q5U7L7).
T3 construct: made in house
As to the kind of experiment: biochemical. Conditions: for IC50: enethiols 6 assayed as sodium salts, 10 min incubation, read-out: IC50 VIM-2 (converted); for remaining activity at 100 µM: read-out: % Residual activity versus VIM-2. The protocol:
as §1
as §2, with “ions. We also screened the inhibitors against a representative panel of SBLs from different classes (TEM-1, Temoneira β-lactamase-1, class A; CTX-M-15, cefotaxime hydrolysing β-lactamase from Munich 15, class A, extended spectrum β-lactamase (ESBL); AmpC E. coli, class C, and OXA-10, oxacillinase-10, class D).” for “ions.”
Figure S6: IC50 curves for VIM-2 inhibition time courses. Residual activities were calculated from the
as §3

In another assay the target is T4, NDM-1 (Klebsiella pneumoniae, UniProt C7C422).
T4 construct: made in house
T4 sequence (C7C422 29-270, looked up, species assumed): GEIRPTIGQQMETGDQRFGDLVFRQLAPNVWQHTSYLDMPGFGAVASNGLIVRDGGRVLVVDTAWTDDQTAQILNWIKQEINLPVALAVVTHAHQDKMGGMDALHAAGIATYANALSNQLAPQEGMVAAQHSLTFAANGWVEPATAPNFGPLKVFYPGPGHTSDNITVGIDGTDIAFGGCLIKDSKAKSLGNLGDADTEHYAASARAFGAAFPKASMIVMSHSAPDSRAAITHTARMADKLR
Nature of the assay: NDM-1 inhibition, fluorogenic cephalosporin (FC5) hydrolysis. Conditions: for IC50: enethiols 6 assayed as sodium salts, 10 min incubation, read-out: IC50 NDM-1; for remaining activity at 100 µM: read-out: % Residual activity versus NDM-1. In kind it is biochemical. The protocol: as §1, §2
Figure S4: IC50 curves for NDM-1 inhibition time courses. Residual activities were calculated from the
as §3

Assay [1] has as its system MBLs (SPM-1, IMP-1, BcII, VIM-2, NDM-1). In kind it is biochemical. Conditions: for MBL inhibition, result in words: at 100 µM. As to the method: as §1
as §2, with “ions. We also screened the inhibitors against a representative panel of SBLs from different classes (TEM-1, Temoneira β-lactamase-1, class A; CTX-M-15, cefotaxime hydrolysing β-lactamase from Munich 15, class A, extended spectrum β-lactamase (ESBL); AmpC E. coli, class C, and OXA-10, oxacillinase-10, class D).” for “ions.”

Where [2] appears, read: lower end of the range, read-out: IC50 values from (lowest across the MBL panel).

Like-named read-outs stand apart in the source and are kept apart here.

T1 sequence (P52699 19-246, looked up, species assumed): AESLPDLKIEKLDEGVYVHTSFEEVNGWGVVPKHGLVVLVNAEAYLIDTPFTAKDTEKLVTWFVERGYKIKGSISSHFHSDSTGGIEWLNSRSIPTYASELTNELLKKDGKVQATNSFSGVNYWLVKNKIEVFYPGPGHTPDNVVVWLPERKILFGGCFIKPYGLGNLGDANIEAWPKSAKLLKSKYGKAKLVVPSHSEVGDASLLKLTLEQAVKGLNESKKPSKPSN
Chain of SPM-1 (Q8G9Q0 entry or part of it): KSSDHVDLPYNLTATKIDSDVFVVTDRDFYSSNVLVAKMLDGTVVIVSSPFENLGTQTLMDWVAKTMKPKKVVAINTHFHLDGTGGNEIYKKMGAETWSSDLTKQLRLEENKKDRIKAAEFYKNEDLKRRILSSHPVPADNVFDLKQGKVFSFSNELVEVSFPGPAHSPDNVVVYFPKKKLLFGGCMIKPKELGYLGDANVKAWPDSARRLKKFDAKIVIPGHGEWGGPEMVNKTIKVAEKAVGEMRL

As for `CN1CCN(NC(=O)CN2C(=O)/C(=C/c3ccccc3I)SC2=S)CC1` [Compound 5i], the half-maximal inhibitory concentration (IC50) is 8800 nM on SPM-1; 37100 nM at IMP-1; above 50000 nM at BcII; 37600 nM on VIM-2; above 50000 nM at NDM-1.
In the case of `CN1CCN(NC(=O)CN2C(=O)/C(=C/c3c(F)cccc3Cl)SC2=S)CC1` [Compound 5j], the IC50 on SPM-1 is 100 nM; at IMP-1, 300 nM; at BcII it was 2000 nM; on VIM-2, 800 nM; on NDM-1 it was above 50000 nM.
Turning to `CN1CCN(NC(=O)CN2C(=O)/C(=C/c3c(F)ccc(F)c3F)SC2=S)CC1` [Compound 5k], the half-inhibitory concentration (IC50) on SPM-1 was 1500 nM; on IMP-1, 1600 nM; at BcII, 3500 nM; at VIM-2, 2600 nM; on NDM-1, 40100 nM; in assay [1] (SPM-1, IMP-1, BcII, VIM-2, read-out: IC50 values for all the tested B1 subclass MBLs, with the exception of NDM-1) it was below 3500 nM.
In the case of `CN1CCN(NC(=O)CN2C(=O)/C(=C/c3cccc(Cl)c3Cl)SC2=S)CC1` [Compound 5n], the IC50 is 300 nM on SPM-1; 600 nM at IMP-1; 1100 nM on BcII; 39500 nM on VIM-2; 32800 nM at NDM-1.
Regarding `CN1CCN(NC(=O)CN2C(=O)/C(=C/c3cc(Cl)ccc3Cl)SC2=S)CC1` [Compound 5o], the IC50 is 2800 nM at SPM-1; 7000 nM at IMP-1; 15400 nM at BcII; above 50000 nM at VIM-2; above 50000 nM on NDM-1.
With `CN1CCN(NC(=O)CN2C(=O)/C(=C/c3c(F)cccc3F)SC2=S)CC1` [Compound 5p], the IC50 at SPM-1 was 1300 nM; on IMP-1, 1300 nM; at BcII it was 3000 nM; on VIM-2 it was 41700 nM; at NDM-1, above 50000 nM.
Turning to `Cc1cccc(C)c1/C=C1\SC(=S)N(CC(=O)NN2CCN(C)CC2)C1=O` [Compound 5q], the 50% inhibitory concentration (IC50) was 200 nM on SPM-1; 2700 nM at IMP-1; 27000 nM at BcII; 29400 nM at VIM-2; above 50000 nM at NDM-1.
For `O=C(O)/C(S)=C/c1csc2ccccc12` [Compound 6L], the IC50 is 400 nM on SPM-1; 700 nM on IMP-1; 3100 nM on BcII; 500 nM at VIM-2; 11100 nM at NDM-1.
In the case of `Cc1ccc(/C=C(\S)C(=O)O)cc1` [Compound 6b], the concentration for half-maximal inhibition (IC50) on SPM-1 is 300 nM; on IMP-1, 200 nM; on BcII it was 700 nM; on VIM-2 it was 400 nM; at NDM-1 it was 3700 nM.
For `O=C(O)/C(S)=C/c1ccc(F)cc1` [Compound 6c], the IC50 was 4100 nM at SPM-1; 2700 nM at IMP-1; 8200 nM at BcII; 9700 nM on VIM-2; 5000 nM at NDM-1.
For `COc1ccc(/C=C(\S)C(=O)O)cc1` [Compound 6e], in that order: 600 nM, 800 nM, 2400 nM, 400 nM and 8200 nM.
Taken in the same sequence, the figures for `O=C(O)/C(S)=C/c1ccccc1F` [Compound 6f] were 300 nM, 1400 nM, 4000 nM, 3300 nM and 12900 nM.
For `O=C(O)/C(S)=C/c1ccccc1Cl` [Compound 6g], in that order: 100 nM, 400 nM, 900 nM, 400 nM and 5100 nM.
For the compound `O=C(O)/C(S)=C/c1ccccc1Br` [Compound 6h], the concentration for half-maximal inhibition (IC50) is 3500 nM on SPM-1; 800 nM at IMP-1; 5800 nM at BcII; 2700 nM at VIM-2; 16200 nM at NDM-1.
As to `O=C(O)/C(S)=C/c1c(F)cccc1Cl` [Compound 6j], the IC50 was 4.3 nM on SPM-1; 30 nM at IMP-1; 60 nM on BcII; 50 nM at VIM-2; 4400 nM at NDM-1.
As for `O=C(O)/C(S)=C/c1c(F)ccc(F)c1F` [Compound 6k], the half-inhibitory concentration (IC50) at SPM-1 was 100 nM; on IMP-1, 400 nM; on BcII, 300 nM; at VIM-2 it was 300 nM; at NDM-1 it was 3300 nM.
Consider `O=C(O)/C(S)=C/c1cccc(Cl)c1Cl` [Compound 6n], for which the 50% inhibitory concentration (IC50) was 200 nM on SPM-1; 1000 nM on IMP-1; 1000 nM at BcII; 1300 nM at VIM-2; 46500 nM at NDM-1; 200 nM in assay [1] (setting [2]).
With `O=C(O)/C(S)=C/c1cc(Cl)ccc1Cl` [Compound 6o], the IC50 is 800 nM at SPM-1; 4700 nM on IMP-1; 1600 nM on BcII; 1500 nM at VIM-2; 45300 nM at NDM-1; 800 nM in assay [1] (setting [2]).
Turning to `O=C(O)/C(S)=C/c1c(F)cccc1F` [Compound 6p], the IC50 was 60 nM on SPM-1; 200 nM at IMP-1; 100 nM at BcII; 200 nM at VIM-2; 21500 nM at NDM-1; 60 nM in assay [1] (setting [2]).
Consider `Cc1cccc(C)c1/C=C(\S)C(=O)O` [Compound 6q], for which the half-maximal inhibitory concentration (IC50) at SPM-1 is 20 nM; at IMP-1, 20 nM; at BcII, 200 nM; on VIM-2, 70 nM; on NDM-1, 4900 nM; in assay [1] (setting [2]), 20 nM. Moreover, the IC50 in assay [1] (upper end of the range, read-out: IC50 values to (highest across the MBL panel)) amounted to 4900 nM.
With `O=C(O)/C(S)=C/c1ccccc1Cc1ccc2ccccc2c1` [Compound 6s], the half-inhibitory concentration (IC50) at SPM-1 was 60 ± 3 nM; at IMP-1, 80 ± 2 nM; at BcII, 200 ± 30 nM; at VIM-2 it was 100 ± 3 nM; at NDM-1, 1100 ± 1700 nM.
For the compound `CC1=N/C(=C\c2ccc(F)cc2)C(=O)O1` [Compound 16], the remaining activity at 100 µM at SPM-1 (at 100 µM) was found to be 87 ± 1%; at IMP-1 (at 100 µM), 100%; at BcII (at 100 µM) it was 92 ± 2%; on VIM-2 (at 100 µM), 100%; on NDM-1 (at 100 µM), 97 ± 2%. In addition, in assay [1], the “MBL inhibition, result in words” value is “near inactive”.
With `O=C(O)/C(O)=C/c1ccc(F)cc1` [Compound 17], the remaining activity at 100 µM stood at 93 ± 2% on SPM-1 (at 100 µM); 100% at IMP-1 (at 100 µM); 90 ± 3% on BcII (at 100 µM); 100% on VIM-2 (at 100 µM); 97 ± 4% at NDM-1 (at 100 µM). Also, the “MBL inhibition, result in words” value in assay [1] was “near inactive”.
As for `O=P(O)(O)C(O)c1ccc(Br)cc1F` (centres unmarked) [Compound 22], the remaining activity at 100 µM was found to be 92 ± 5% on SPM-1; 100% on IMP-1; 98 ± 2% on BcII; 100% on VIM-2; 100% on NDM-1. In addition, the “MBL inhibition, result in words” value in assay [1] was “inactive”.
For `O=C(O)CN1C(=O)/C(=C/c2c(Cl)ccc(Cl)c2Cl)SC1=S` [ML302A], the IC50 was 4800 ± 300 nM on SPM-1; 9600 ± 400 nM on IMP-1; 21300 ± 500 nM at BcII; 3600 ± 700 nM at VIM-2; above 50000 nM on NDM-1.
